One series concerns MDA-MB-231 xenograft. The settings on record: cited from earlier work.
The subject of the next series is MDA-MB-468 xenograft. The settings on record: cited from earlier work; for median tumor growth inhibition: compared to control.
A further series has as its system CDA-depleted HeLa cells. The experiment in a line: Images of CDA-depleted HeLa cells 24 h after Dasatinib treatment. Format: cell-based, human. The settings on record: 24 h after 0.5 or 1 μM.
The test system of a further series is HCC-1954 cells. The experiment in a line: MTT cell viability, HCC-1954 (gemcitabine after 5-Aza-dC pretreatment). In kind it is cell-based, human. Particulars: pretreatment 96 h with 1 μM 5-Aza-dC versus untreated, then gemcitabine 72 hours.
Another series relates to IGROV-1 cells. The experiment in a line: MTT cell viability, IGROV-1. In kind it is cell-based, human. The settings on record: pretreatment 96 h with 1 μM 5-Aza-dC versus untreated, then gemcitabine 72 hours.
Series [1] concerns breast cancer cell lines (MDA-MB-231, HCC-1954, MCF-7, BT-20) and IGROV-1.
Procedure: D, Cell viability, as assessed in MTT assays on breast cancer cell lines (MDA-MB-231, HCC-1954, MCF-7, BT-20) and an ovarian cell cancer line (IGROV-1) after 96 h of treatment with 5-Aza-dC. Error bars represent the mean±SD of 3 independent experiments for IGROV-1 and 2 experiments for the other cell lines. […] The dashed lines indicate the 5-Aza-dC concentrations used in this study.
Cell viability was carried out with 3-(4,5-dimethyl-2-thiazolyl)-2,5 diphenyl-2H-tetrazolium bromide (MTT-Life Technologies) in 96-well microplates.
A further series relates to CDA mRNA. The experiment in a line: RT-qPCR analysis of the induction of CDA expression. The settings on record: 96 hours, 2.5 μM 5-Aza-dC. Format: cell-based, human. Here is the method: For evaluation of the induction of CDA expression, RNA was isolated from cell lines continuously treated with 1 or 2.5 μM of 5-Aza-2′-deoxycytidine (5-Aza-dC—Sigma Aldrich) for 96 hours.
The procedure for real-time PCR (RT-qPCR) was as described by Gemble et al. (cf. Reference 19). In brief, total RNA was extracted from PDX tissues and from cell lines with the RNeasy Mini Kit (Qiagen). Reverse transcription was performed on 1 μg of RNA with the GoScript enzyme (Promega). The cDNA obtained was used at a dilution of 1/10 for real-time PCR with the SYBER Green supermix reagent (Biorad) in a Biorad CFX96 machine. Each sample was run in triplicate. Relative expression was determined by the 2^−ΔΔCt method. GAPDH and TBP were used as internal controls.
On the technique in general: In qPCR the cycle at which signal appears reflects the starting amount.

For another series, the system named is CDA protein. The experiment in a line: Western blot analysis of the induction of CDA expression. Format: cell-based, human. The settings on record: HCC-1954 and IGROV-1, 1 μM 5-Aza-dC for 96 h. The procedure: For western blotting, cells were harvested by centrifugation and lysed in 8 M urea, 50 mM Tris-HCl, pH 7.5 and 150 mM β-mercaptoethanol buffer supplemented with protease inhibitor (ThermoScientific). They were then sonicated and heated. Protein concentration was estimated with the BCA kit (Pierce) and the equivalent of 20 μg or protein per cell lysate was run on a 4-12% Bis-Tris pre-cast gel (Life Technologies). The proteins were then transferred to PVDF membranes, which were probed with the appropriate antibody. Protein bands were visualized with a CCD camera (BioRad).
A general note: A western blot detects proteins with antibodies after separation by electrophoresis.

Where [2] appears, read: MDA-MB-231 xenograft mice, 70 mg/kg.

Read-outs that look alike come from different tables or passages of the source.

Procedure for HCC-1954 cells: (§1) Cell viability was carried out with 3-(4,5-dimethyl-2-thiazolyl)-2,5 diphenyl-2H-tetrazolium bromide (MTT-Life Technologies) in 96-well microplates. The functionality of CDA was assessed by plating HCC-1954 and IGROV-1 cells at densities of 2000 and 3000 cells/well, respectively, on the day before pretreatment and at a density of 800 cells/well for control conditions. Cells were then left untreated or subjected to pretreatment with 1 μM 5-Aza-dC for 96 h. The cells were washed twice with PBS buffer, placed in fresh medium and incubated for 72 hours in the presence of various concentrations of gemcitabine, from 0.001 to 1 μM (Sigma Aldrich). The data were normalized to corresponding controls, for each condition.
Procedure for IGROV-1 cells: as §1

With `Cc1c(F)c(N)c2c(=O)cc(-c3ccc(NC(=O)[C@@H](N)CCCCN)c(F)c3)oc2c1F` [AFP464], the tolerance result in the series with MDA-MB-231 xenograft (MDA-MB-231 xenograft mice, 35 mg/kg) is on record as “well tolerated”; in the series on MDA-MB-468 xenograft (MDA-MB-468 xenograft mice, 35 and 50 mg/kg), “well tolerated”. For the same compound, the body weight loss result in the series on MDA-MB-231 xenograft (setting [2]) is “up to 15%”. For the same compound, the “death of mice during the course of treatment” value in the series with MDA-MB-231 xenograft (setting [2]) is 1 of 7. Further, the “antitumor activity (inhibition)” value in the series with MDA-MB-231 xenograft (MDA-MB-231 xenograft, AFP464 alone, 35 or 70 mg/kg) was 0%. In addition, the tumor growth entry with MDA-MB-468 xenograft (MDA-MB-468 xenograft, 35 or 50 mg/kg i.v., compared to vehicle control) is “statistically significantly delayed tumor growth”. For the same compound, the “median tumor growth inhibition” value in the series with MDA-MB-468 xenograft (MDA-MB-468 xenograft, after one cycle of treatment) is on record as 57%; in the series with MDA-MB-468 xenograft (MDA-MB-468 xenograft, after two cycles of treatment), 54%.

As to `Cc1nc(Nc2ncc(C(=O)Nc3c(C)cccc3Cl)s2)cc(N2CCN(CCO)CC2)n1` [NSC 759877, Dasatinib], in the series with CDA-depleted HeLa cells, the “effect on cell morphology (images)” value is “no effect”.

On to `Nc1ccn([C@@H]2O[C@H](CO)[C@@H](O)C2(F)F)c(=O)n1` [gemcitabine], for which the “gemcitabine resistance (cell survival, MTT)” value in the series with HCC-1954 cells and with IGROV-1 cells was “significant increase in gemcitabine resistance” throughout.

Regarding `Nc1ncn([C@H]2C[C@H](O)[C@@H](CO)O2)c(=O)n1` [5-Aza-dC, 5-Aza-2′-deoxycytidine], the “toxicity (cell viability, MTT)” value in series [1] is on record as “without major toxicity”. Moreover, the “induction of CDA mRNA levels” value in the series with CDA mRNA (7 CDA-deficient cell lines) is “up to 1000 fold”. Also, in the series with CDA mRNA (MDA-MB-231, HOP-92, HCC-1143 and HCC-1937 control cell lines with constitutively high CDA), the “induction of CDA transcript levels” value was “two-fold”. Besides, the “induction of CDA protein production” value in the series on CDA protein is reported as “strongly induced the production of a functional CDA protein”.
